These results are taken from patent US10087197B2, “Selective extraction of anions from solution” (Western Michigan University Research Foundation, priority 2012, dated 2018).

The nature of series [1]: Thermal stability of rings on recrystallization from boiling n-butanol. The class given is physicochemical. To be noted: recrystallization from boiling n-butanol (b.p.=118° C.). How it is done:
(Bu4N)2[SO4^2−⊂{cis-Cu^II(μ-OH)(μ-pz)}28] can also be crystallized from chlorobenzene, 1,2-dichloroethane or n-butylamine by hexane vapor diffusion, and from CH2Cl2 by Et2O vapor diffusion. SO4^2−⊂{cis-Cu^II(μ-OH)(μ-pz)}31 can also be crystallized as the Bu4N-salt from chlorobenzene. Moreover, crystals of (Bu4N)2[SO4^2−⊂{cis-Cu^II(μ-OH)(μ-pz)}28] were also obtained by recrystallization from boiling n-butanol (b.p.=118° C.), indicating stability of the rings at that temperature.

The nature of series [2]: Solubility of nano-jar aggregates and polymer in solvents. It counts as physicochemical. To be noted: dark blue powder; for solubility in a wide variety of solvents: CCl4, CS2, aromatic hydrocarbons, ethers, ketones, esters, nitriles, amines, halogenated and nitro compounds, DMF and DMSO. The text has this: The unusually high solubility of (Bu4N)2[SO4^2−⊂{cis-Cu^II(μ-OH)(μ-pz)}6+12+10], and (Bu4N)2[SO4^2−⊂{cis-Cu^II(μ-OH)(μ-pz)}8+14+9]
Production of Host 1 and Host 2 via depolymerisation of [Cu^II(μ-OH)(μ-pz)]∞ includes the steps of combining aqueous solutions of CuSO4 and KOH/Hpz (1:2:1 molar ratio), which results in the formation of a blue-purple precipitate (Scheme 1). […] Elemental analysis results concur with the formula [Cu(OH)(pz)] (for C3H4CuN2O, M.W.=147.62, calculated/found: C, 24.4124.25%; H, 2.73/2.72%; N, 18.9818.40%). The structure of this intractable material likely consists of linear polymeric chains resulting from an all-trans arrangement of the pyrazole and OH moieties about the copper centers, similar to the ones found in [Cu^II(μ-pz)2]∞.
(Bu4N)HSO4 or (Bu4N)2SO4 can be added to a suspension of [Cu(μ-OH)(μ-pz)]∞ in THF or toluene, which leads to the immediate formation of a deep blue solution, and gradual dissolution of the solid. […] Hexane vapor diffusion to a toluene solution is then used to obtain dark blue single crystals in the form of blocks and thin plates.
In particular, one embodiment includes anion-encapsulating aggregates based on encapsulating host assemblies such as {cis-Cu^II(μ-OH)(μ-4-Mepz)}27 (“Host 13”), {cis-Cu^II(μ-OH)(μ-4-Mepz)}28(“Host 14”), {cis-Cu^II(μ-OH)(μ-4-Mepz)}29(“Host 15”), {cis-Cu^II(μ-OH)(μ-4-Mepz)}30(“Host 16”), {cis-Cu^II(μ-OH)(μ-4-Mepz)}31(“Host 17”), and {cis-Cu^II(μ-OH)(μ-4-Mepz)}32(“Host 18”). These alkyl ligand-bound pyrazole anion-encapsulating aggregates include 4-methylpyrazole (“4-Mepz”) and are somewhat soluble in pentane, hexane and cyclohexane. Hosts 13, 15, and 17 selectively encapsulate both carbonate and sulfate anions. Hosts 14 and 18 selectively encapsulate sulfate anions. Host 16 selectively encapsulates carbonate anions. These encapsulating host assemblies form anion-encapsulating aggregates which are capable of encapsulating anions present as contaminants in aqueous-hydrocarbon solvent mixtures, including without limitation in-process nuclear waste.
Another embodiment of an anion-encapsulating host containing a longer chain ligand-bound pyrazole is based on the formation of encapsulating host assemblies including 4-butylpyrazole. Anion-encapsulating aggregates incorporating 4-butylpyrazole are very soluble in pentane, hexane and cyclohexane, and are gradually less soluble in longer hydrocarbons (such as heptane, octane, decalin, and hexadecane). These anion-encapsulating aggregates can be used to encapsulate anions present as contaminants in aqueous-hydrocarbon solvent mixtures, such as those present in in-process nuclear waste.

Series [3] can be described thus: Preliminary selectivity study: self-assembly reaction with competing anions, sulfate determined gravimetrically as BaSO4. Conditions: for encapsulation of sulfate into the product: 1:54 molar ratio of sulfate and nitrate (or perchlorate) anions, gravimetric as BaSO4 after digestion with 6M HCl; for selectivity for sulfate ion in the presence of halides: in the presence of fluoride, chloride and bromide ions; for preference for sulfate anion over nitrate or perchlorate anions: preliminary selectivity studies. The text has this: A self-assembly reaction using a 1:54 molar ratio of sulfate and nitrate (or perchlorate) anions led to the quantitative encapsulation of sulfate into the product, as determined gravimetrically by precipitation as BaSO4 after digestion with 6M HCl. […] The selectivity for sulfate over nitrate, along with the stability at high (basic) pH is especially relevant for the sulfate-extraction efforts during nuclear waste treatment by vitrification, because it allows liquid-liquid extraction. The methods described herein also offer the benefit of recyclability of the sulfate-encapsulating assemblies. The encapsulating host assemblies can be recovered by stirring the dry residue obtained after BaSO4 precipitation (containing CuCl2, Hpz and Et3NHCl) with excess Et3N in DMF. Following such mixing, the characteristic absorption at 599 nm indicates the re-assembly of the [cis-Cu^II(μ-OH)(μ-pz)]n rings.

Series [4] is described as follows: Liquid-liquid extraction of sulfate from aqueous nitrate solution at pH 14. To be noted: 5 M nitrate (NaNO3), 0.044 M sulfate (Na2SO4), 1.25 M NaOH (pH 14); sulfate to nitrate ratio 1:114. The text has this:
In experiments, an aqueous solution containing 5 M nitrate (NaNO3), 0.044 M sulfate (Na2SO4) and 1.25 M NaOH (pH 14), in which the sulfate to nitrate ratio is 1:114 was combined together with an organic phase containing the stoichiometrically (based on the amount of sulfate) required amounts of nano-jar components.

Take “(Bu4N)2[SO4^2−⊂{cis-Cu^II(μ-OH)(μ-pz)}6+12+10]”: the “stability of the rings at temperature” value in series [1] is “stability”. Besides, in series [2], the “solubility in a wide variety of solvents” value is recorded as “highly soluble”; the solubility in alcohols entry was “slightly soluble”; the “solubility in aliphatic hydrocarbons and water” value was “insoluble”.
“(Bu4N)2[SO4^2−⊂{cis-Cu^II(μ-OH)(μ-pz)}8+14+9]”: in series [2], the “solubility in a wide variety of solvents” value is on record as “highly soluble”; the solubility in alcohols result was “slightly soluble”; the “solubility in aliphatic hydrocarbons and water” value is “insoluble”.
In the case of {cis-Cu^II(μ-OH)(μ-pz)}6+12+10 [Host 1], in series [3], the “encapsulation of sulfate into the product” value was “quantitative”, the “selectivity for sulfate ion in the presence of halides” value is on record as “Partial selectivity” and the “preference for sulfate anion over nitrate or perchlorate anions” value is reported as “marked preference”. The “extraction of sulfate anions from aqueous phase to organic phase” value in series [4] is “effectively and selectively extracted”.
As to {cis-Cu^II(μ-OH)(μ-pz)}8+14+9 [Host 2], in series [3], the “encapsulation of sulfate into the product” value is reported as “quantitative”, the “selectivity for sulfate ion in the presence of halides” value is “Partial selectivity” and the “preference for sulfate anion over nitrate or perchlorate anions” value was “marked preference”. Moreover, the “extraction of sulfate anions from aqueous phase to organic phase” value in series [4] is “effectively and selectively extracted”.
